In patent publication US11505617B2, “Benzodiazepine derivatives” (IMMUNOGEN, INC., priority 2009, dated 2022):
Where two headings read alike, the source gives them in different places.

Legend:
COLO205-MDR = test: In vitro cytotoxicity, multi-drug resistant COLO 205 MDR cells; format: cell-based, human; details: free compound; multi-drug resistant line vs COLO205
Excerpt: (§1) The in vitro cytotoxicity of the cytotoxic compounds (e.g., indolinobenzodiazepine or oxazolidinobenzodiazepine), derivatives thereof, dimers thereof or conjugates thereof of the present invention can be evaluated for their ability to suppress proliferation of various cancerous cell lines in vitro (Tables 1, 2 in FIGS. 31, 32.). For example, cell lines such as the human breast carcinoma line SK-Br-3, or the human epidermoid carcinoma cell line KB, can be used for the assessment of cytotoxicity of these new compounds. Cells to be evaluated can be exposed to the compounds for 72 hours and the surviving fractions of cells measured in direct assays by known methods. IC50 values can then be calculated from the results of the assays.
Conjugates of cell-binding agents with cytotoxic agents of the invention can be evaluated for their ability to suppress proliferation of various unwanted cell lines in vitro. […] Cells to be evaluated can be exposed to the compounds for 1-5 days and the surviving fractions of cells measured in direct assays by known methods. IC50 values can then be calculated from the results of the assays. […]
At the end of the incubation period cytotoxic potencies were then assessed using a WST-based cell viability assay and surviving cells were measured by developing with WST (2-7 hours). […]

[1] = tested on: double stranded DNA (dsDNA); test: DNA probe assay for IGN dimer binding and alkylation to double stranded DNA; details: for binding and covalent adduct formation with double stranded DNA: dsDNA containing guanine residues on opposite strands
Description: (§2) Reaction conditions: dsDNA ([…] final concentration) in 100 mM TRIS, 1 mM EDTA, pH 8 was mixed with 3.7 molar equivalents of IGN-01 (compound 18), IGN-02 (compound 19), or IGN-09 (compound 15) dissolved in acetonitrile (final acetonitrile concentration <2% by volume). The reaction was incubated at 15° C. (below TM of the dsDNA) and 10 μl aliquots are injected on reverse phase-HPLC at various time points after mixing
(§3) HPLC conditions: Waters Xbridge C8 2.1×50 mm column, Buffer A: 100 mM hexafluoroisopropanol, 16.3 mM triethylamine, in water, Buffer B: Methanol; 98% A→100% B over 32 min, 0.25 ml/min flow, 60° C. column heat, 260 nm detection. Areas under the curve (AUC) for the probe DNA peak and the resulting IGN/DNA adduct peak are used to determine the % crosslinking at each time point of incubation.
(§4) DNA annealing: single stranded DNA (Invitrogen) was annealed into dsDNA using a Peltier thermal cycler (PTC-200, MJ Research). 1 mM DNA in 100 mM TRIS, 1 mM EDTA pH 8 was heated to 80° C. and then gradually cooled to 4° C. over 90 min in 15 degree steps. The resulting dsDNA was kept at 4° C. until used in the assay.

[2] = tested on: single stranded DNA (ssDNA); test: DNA probe assay control with single stranded DNA; format: binding; details: control experiments
Description: as §2, §3, §4

Ramos cells = test: In vitro cytotoxicity, Ramos cells; format: cell-based; details: Homo sapiens, read-out: IC50, in vitro antiproliferative activity
Excerpt: as §1
(§5) Conjugates of cell-binding agents with cytotoxic agents of the invention can be evaluated for their ability to suppress proliferation of various unwanted cell lines in vitro. For example, cell lines such as the human colon carcinoma line COLO 205, the rhabdomyosarcoma cell line RH-30, and the multiple myeloma cell line MOLP-8 can be used for the assessment of cytotoxicity of these conjugates. Cells to be evaluated can be exposed to the compounds for 1-5 days and the surviving fractions of cells measured in direct assays by known methods. IC50 values can then be calculated from the results of the assays.
General Procedure Used: Samples of IGN Free Drugs or IGN Conjugates were added to 96-well flat bottomed tissue culture plates and titrated using serial dilutions to cover the desired molar range. Antigen positive (Ag+) or Antigen negative (Ag−) cells were added to the wells in specific cell densities in such a way that there were triplicate samples for each drug concentration for each corresponding cell line. The plates were then incubated at 37° C. in an atmosphere of 5% CO2 for 4-5 days depending on the cell line. COLO 205 (1,000 cells/well), Namalwa (3,000 cells/well)—4 days; RH30(1,000 cells/well), Ramos (10,000 cells/well), KB (1,000 cells/well)—5 days)
(§6) At the end of the incubation period cytotoxic potencies were then assessed using a WST-based cell viability assay and surviving cells were measured by developing with WST (2-7 hours). The absorbance in each well was measured and the surviving fraction of cells at each concentration was plotted to reveal the cytotoxicity and antigen specificity (of the conjugates).

RH30 cells = test: In vitro cytotoxicity of conjugates, RH30 cells; format: cell-based, human
Excerpt: as §5
General Procedure Used: Samples of IGN Free Drugs or IGN Conjugates were added to 96-well flat bottomed tissue culture plates and titrated using serial dilutions to cover the desired molar range. Antigen positive (Ag+) or Antigen negative (Ag−) cells were added to the wells in specific cell densities in such a way that there were triplicate samples for each drug concentration for each corresponding cell line. […]
as §6

## COc1cc2c(cc1OCCCOc1cc3c(cc1OC)C(=O)N1c4ccccc4C[C@H]1C=N3)N=C[C@@H]1Cc3ccccc3N1C2=O [IGN-09]
COLO205-MDR
  fold higher IC50 on COLO205-MDR than COLO205: 4 fold
[1]
  binding and covalent adduct formation with double stranded DNA: bind and covalently adduct
[2]
  covalent adduct formation with single stranded DNA: did not form covalent adducts
Ramos cells; Ramos
  IC50: < 1 pM

## COc1cc2c(cc1OCc1cccc(COc3cc4c(cc3OC)C(=O)N3c5ccccc5C[C@H]3C=N4)c1)N=C[C@@H]1Cc3ccccc3N1C2=O [IGN-01]
[1]; DNA with internal GATC motif vs GTAC sequence
  rate of DNA binding, dependence on DNA sequence: binds faster to DNA containing an internal GATC motif
[1]
  binding and covalent adduct formation with double stranded DNA: bind and covalently adduct
[1]; probe containing no C-2 amino group
  reaction with DNA probe substituted with deoxyInosine in place of guanine: no reaction
[2]
  covalent adduct formation with single stranded DNA: did not form covalent adducts
Ramos cells; free compounds with and without linker, Ramos cell line (Table 2)
  IC50: < 1 pM

## COC(=O)COc1cc(COc2cc3c(cc2OC)C(=O)N2c4ccccc4C[C@H]2C=N3)cc(COc2cc3c(cc2OC)C(=O)N2c4ccccc4C[C@H]2C=N3)c1 [IGN05]
Ramos cells; Ramos
  IC50: < 1 pM

## COC(=O)CCCCOc1cc(COc2cc3c(cc2OC)C(=O)N2c4ccccc4C[C@H]2C=N3)cc(COc2cc3c(cc2OC)C(=O)N2c4ccccc4C[C@H]2C=N3)c1 [IGN03]
Ramos cells; Ramos
  IC50: < 1 pM

## COc1cc2c(cc1OCc1cccc(COc3cc4c(cc3OC)C(=O)N3COC[C@H]3C=N4)c1)N=C[C@@H]1COCN1C2=O [IGN-02]
[1]
  binding and covalent adduct formation with double stranded DNA: bind and covalently adduct
[2]
  covalent adduct formation with single stranded DNA: did not form covalent adducts

B1: huN901-IGN03 (conjugate, chains of the INN, looked up)
VH: QVQLVESGGGVVQPGRSLRLSCAASGFTFSSFGMHWVRQAPGKGLEWVAYISSGSFTIYYADSVKGRFTISRDNSKNTLYLQMNSLRAEDTAVYYCARMRKGYAMDYWGQGTLVTVSS
VL: DVVMTQSPLSLPVTLGQPASISCRSSQIIIHSDGNTYLEWFQQRPGQSPRRLIYKVSNRFSGVPDRFSGSGSGTDFTLKISRVEAEDVGVYYCFQGSHVPHTFGQGTKVEIK
modifications: IGN03 indolinobenzodiazepine payload
RH30 cells; RH30 cells with an excess of unconjugated huN901 antibody
  IC50: > 3000 pM
RH30 cells; antigen positive RH30 cells
  IC50: 15 pM
